Tested on: reprogramming resistant regions (RRRs) / ZGA genes
Experiment: RNA-seq of late 8-cell human SCNT embryos with or without KDM4A mRNA injection (ZGA of RRRs, KDM4A-responsive genes)
Format: cell-based
Text: A sliding window (size 20 kb, step size 10 kb) was used to assess the genome-wide expression level of 4-cell and 8-cell human embryos. For each window, the expression level was quantified with normalized RPM (reads per millions of uniquely mapped reads). […] These activated regions were classed into three groups based on their expression differences in human SCNT and IVF 8-cell embryos.
The SCNT embryos used for ZGA analysis were generated using oocytes donated by a single healthy person (#64) and dermal fibroblast cells from an AMD patient (DFB-8). SCNT and IVF embryos were cultured up to late 8-cell stage, when the compaction of blastomeres is initiated, then they were treated briefly with acid Tyrode solution to remove zona pellucida. To prepare for the 8-cell SCNT embryo, oocytes from a single oocyte donor, and skin fibroblast cells from a single somatic nuclear donor were used. All the procedures are the same as described in the “Human SCNT procedure and KMD4A mRNA injection” section. Only embryos that reached the late 8-cell stage synchronically 74 hours post activation were collected and used for this experiment.
For preparation of the control IVF embryos, several donated early 8-cell stage IVF embryos were thawed and cultured for 5-7 hours to allow them to reach late 8-cell stage before being processed. After removal of the zona pellucida, the denuded embryos were washed 3 times in PBS, loaded into RNAse and DNAse free PCR tubes, spin downed, and snap frozen in liquid nitrogen. Then, they were kept at −80° C. until use. As controls, dermal fibroblast cells of somatic nuclear donors were also prepared. Those fibroblast cells were cultured in a 25 cm^2 flask in DMEM 10% FBS, and approximately 10,000 cells/donor were collected, snap frozen, and stored at −80° C. until use.
Five 8-cell embryos for each group were directly lysed and used for cDNA synthesis using SMART-Seq v4 Ultra Low Input RNA Kit (Clontech). For MEF donor, 10 ng total RNA was used for cDNA synthesis using SMART-Seq v4 Ultra Low Input RNA Kit. After amplification, the cDNA samples were fragmented using Covaris sonicator M220 to an average size of 150 bp (Covaris). Sequencing libraries were made with the fragmented DNA using NEBNext Ultra DNA Library Prep Kit for Illumina according to manufacturer's instruction (New England Biolabs) with different barcodes. For each RNA-seq analysis of hESCs, 1 μg total RNA was used for mRNA purification. Barcoded RNA-seq libraries were generated using NEBNext Ultra Directional RNA Library Prep Kit for Illumina (New England Biolabs). Single end 50 bp sequencing was performed on a HiSeq 2500 sequencer (Illumina). Sequencing reads were mapped to the human genome (hg19) with Tophat2. All programs were performed with default settings (unless otherwise specified). At least 22 million uniquely mapped reads were obtained for each sequencing library, and subsequently assembled into transcripts guided by the reference annotation (Refseq gene models) with Cufflinks v2.0.2. Expression level of each gene was quantified with normalized FPKM (fragments per kilobase of exon per million mapped fragments). Statistical analyses were performed with R (available at: “www.r-project.org/”). Independent 2 group Wilcoxon rank sum tests were used to compare distributions using the wilcox.test function in R. Pearson's r coefficient was calculated using the cor function with default parameters. The hierarchical clustering analysis of the global gene expression pattern in different samples was carried out using heatmap.2 function (gplots package) in R.

KDM4A mRNA: in vitro transcribed mRNA of full length human KDM4A/JHDM3A cDNA, an H3K9me3 demethylase (SEQ ID NO: 1)
ZNF826P Fold Change (log2) [KDM4A SCNT/Control SCNT] (8-cell embryos): 2.67 log2
ZNHIT6 Fold Change (log2) [KDM4A SCNT/Control SCNT] (8-cell embryos): 1.58 log2
12-Sep Expression level (FPKM) (KDM4A SCNT 8-cell embryos): 0.3 FPKM
AASDH Expression level (FPKM) (KDM4A SCNT 8-cell embryos): 2.84 FPKM
ACBD5 Expression level (FPKM) (KDM4A SCNT 8-cell embryos): 1.62 FPKM
ALG5 Expression level (FPKM) (KDM4A SCNT 8-cell embryos): 9.71 FPKM
ALPPL2 Expression level (FPKM) (KDM4A SCNT 8-cell embryos): 3.65 FPKM
APOC1P1 Expression level (FPKM) (KDM4A SCNT 8-cell embryos): 0.43 FPKM
ATP5J2-PTCD1 Expression level (FPKM) (KDM4A SCNT 8-cell embryos): 4.51 FPKM
BEX2 Expression level (FPKM) (KDM4A SCNT 8-cell embryos): 2.68 FPKM
BLVRB Expression level (FPKM) (KDM4A SCNT 8-cell embryos): 2.11 FPKM
BTAF1 Expression level (FPKM) (KDM4A SCNT 8-cell embryos): 1.46 FPKM
BTK Expression level (FPKM) (KDM4A SCNT 8-cell embryos): 1.67 FPKM
BUD31 Expression level (FPKM) (KDM4A SCNT 8-cell embryos): 76.07 FPKM
C1D Expression level (FPKM) (KDM4A SCNT 8-cell embryos): 97 FPKM
C2orf74 Expression level (FPKM) (KDM4A SCNT 8-cell embryos): 0.41 FPKM
C11orf67 Expression level (FPKM) (KDM4A SCNT 8-cell embryos): 28.21 FPKM
C12orf60 Expression level (FPKM) (KDM4A SCNT 8-cell embryos): 46.22 FPKM
C16orf91 Expression level (FPKM) (KDM4A SCNT 8-cell embryos): 9.96 FPKM
C17orf89 Expression level (FPKM) (KDM4A SCNT 8-cell embryos): 0.75 FPKM
C18orf56 Expression level (FPKM) (KDM4A SCNT 8-cell embryos): 0.33 FPKM
C20orf7 Expression level (FPKM) (KDM4A SCNT 8-cell embryos): 2.28 FPKM
CAB39L Expression level (FPKM) (KDM4A SCNT 8-cell embryos): 4.06 FPKM
CCAR1 Expression level (FPKM) (KDM4A SCNT 8-cell embryos): 4.62 FPKM
CCDC86 Expression level (FPKM) (KDM4A SCNT 8-cell embryos): 2.88 FPKM
CCL2 Expression level (FPKM) (KDM4A SCNT 8-cell embryos): 6.1 FPKM
CCL15 Expression level (FPKM) (KDM4A SCNT 8-cell embryos): 0.89 FPKM
CELA3B Expression level (FPKM) (KDM4A SCNT 8-cell embryos): 0.49 FPKM
CENPC1 Expression level (FPKM) (KDM4A SCNT 8-cell embryos): 7.41 FPKM
CLC Expression level (FPKM) (KDM4A SCNT 8-cell embryos): 13.82 FPKM
CLDN6 Expression level (FPKM) (KDM4A SCNT 8-cell embryos): 3.54 FPKM
CLK4 Expression level (FPKM) (KDM4A SCNT 8-cell embryos): 19.9 FPKM
CNKSR3 Expression level (FPKM) (KDM4A SCNT 8-cell embryos): 0.29 FPKM
CNPY4 Expression level (FPKM) (KDM4A SCNT 8-cell embryos): 5.19 FPKM
COX7B2 Expression level (FPKM) (KDM4A SCNT 8-cell embryos): 0.79 FPKM
COX17 Expression level (FPKM) (KDM4A SCNT 8-cell embryos): 26.62 FPKM
CSAG1 Expression level (FPKM) (KDM4A SCNT 8-cell embryos): 2.22 FPKM
CSTF3 Expression level (FPKM) (KDM4A SCNT 8-cell embryos): 28.96 FPKM
CUL2 Expression level (FPKM) (KDM4A SCNT 8-cell embryos): 14.32 FPKM
CXorf61 Expression level (FPKM) (KDM4A SCNT 8-cell embryos): 0.85 FPKM
DDX26B Expression level (FPKM) (KDM4A SCNT 8-cell embryos): 1.77 FPKM
DEFB122 Expression level (FPKM) (KDM4A SCNT 8-cell embryos): 0.61 FPKM
DLEU7 Expression level (FPKM) (KDM4A SCNT 8-cell embryos): 2.91 FPKM
DNASE2 Expression level (FPKM) (KDM4A SCNT 8-cell embryos): 0.61 FPKM
DRAM1 Expression level (FPKM) (KDM4A SCNT 8-cell embryos): 0.63 FPKM
ECE2 Expression level (FPKM) (KDM4A SCNT 8-cell embryos): 1.18 FPKM
EIF1AD Expression level (FPKM) (KDM4A SCNT 8-cell embryos): 9.43 FPKM
ELL2 Expression level (FPKM) (KDM4A SCNT 8-cell embryos): 1.39 FPKM
FAM9A Expression level (FPKM) (KDM4A SCNT 8-cell embryos): 1.32 FPKM
FAM19A3 Expression level (FPKM) (KDM4A SCNT 8-cell embryos): 1.7 FPKM
FAM83D Expression level (FPKM) (KDM4A SCNT 8-cell embryos): 2.53 FPKM
FAM133B Expression level (FPKM) (KDM4A SCNT 8-cell embryos): 6.06 FPKM
FAM151A Expression level (FPKM) (KDM4A SCNT 8-cell embryos): 1.01 FPKM
FAM162A Expression level (FPKM) (KDM4A SCNT 8-cell embryos): 19.35 FPKM
FAM200A Expression level (FPKM) (KDM4A SCNT 8-cell embryos): 1.23 FPKM
FASTKD5 Expression level (FPKM) (KDM4A SCNT 8-cell embryos): 4.41 FPKM
FBXL12 Expression level (FPKM) (KDM4A SCNT 8-cell embryos): 1.8 FPKM
FMR1NB Expression level (FPKM) (KDM4A SCNT 8-cell embryos): 0.18 FPKM
FOXN2 Expression level (FPKM) (KDM4A SCNT 8-cell embryos): 5.53 FPKM
GALM Expression level (FPKM) (KDM4A SCNT 8-cell embryos): 3.67 FPKM
GIP Expression level (FPKM) (KDM4A SCNT 8-cell embryos): 12.94 FPKM
GJA1 Expression level (FPKM) (KDM4A SCNT 8-cell embryos): 1.64 FPKM
GOLGB1 Expression level (FPKM) (KDM4A SCNT 8-cell embryos): 1.36 FPKM
GUCA1B Expression level (FPKM) (KDM4A SCNT 8-cell embryos): 0.83 FPKM
GUSBP1 Expression level (FPKM) (KDM4A SCNT 8-cell embryos): 7.96 FPKM
GUSBP4 Expression level (FPKM) (KDM4A SCNT 8-cell embryos): 2.42 FPKM
H3F3A Expression level (FPKM) (KDM4A SCNT 8-cell embryos): 14.47 FPKM
IFI30 Expression level (FPKM) (KDM4A SCNT 8-cell embryos): 25.62 FPKM
IL13RA2 Expression level (FPKM) (KDM4A SCNT 8-cell embryos): 0.26 FPKM
KHDC1 Expression level (FPKM) (KDM4A SCNT 8-cell embryos): 85.25 FPKM
KHDC1L Expression level (FPKM) (KDM4A SCNT 8-cell embryos): 668.53 FPKM
KITLG Expression level (FPKM) (KDM4A SCNT 8-cell embryos): 0.93 FPKM
KLF17 Expression level (FPKM) (KDM4A SCNT 8-cell embryos): 8.4 FPKM
KLK4 Expression level (FPKM) (KDM4A SCNT 8-cell embryos): 1.41 FPKM
KLK11 Expression level (FPKM) (KDM4A SCNT 8-cell embryos): 7.07 FPKM
KPTN Expression level (FPKM) (KDM4A SCNT 8-cell embryos): 6.84 FPKM
LARP6 Expression level (FPKM) (KDM4A SCNT 8-cell embryos): 0.41 FPKM
LEMD3 Expression level (FPKM) (KDM4A SCNT 8-cell embryos): 0.59 FPKM
LIM2 Expression level (FPKM) (KDM4A SCNT 8-cell embryos): 2.01 FPKM
LINC00263 Expression level (FPKM) (KDM4A SCNT 8-cell embryos): 3.81 FPKM
LOC284408 Expression level (FPKM) (KDM4A SCNT 8-cell embryos): 1.36 FPKM
LOC347411 Expression level (FPKM) (KDM4A SCNT 8-cell embryos): 1.62 FPKM
LOC401397 Expression level (FPKM) (KDM4A SCNT 8-cell embryos): 11.19 FPKM
LOC643955 Expression level (FPKM) (KDM4A SCNT 8-cell embryos): 3.18 FPKM
LOC653513 Expression level (FPKM) (KDM4A SCNT 8-cell embryos): 1.03 FPKM
LOC723809 Expression level (FPKM) (KDM4A SCNT 8-cell embryos): 3.84 FPKM
LOC100129515 Expression level (FPKM) (KDM4A SCNT 8-cell embryos): 9.35 FPKM
LOC100289211 Expression level (FPKM) (KDM4A SCNT 8-cell embryos): 8.18 FPKM
LOC100505854 Expression level (FPKM) (KDM4A SCNT 8-cell embryos): 4.77 FPKM
LOC100506305 Expression level (FPKM) (KDM4A SCNT 8-cell embryos): 0.91 FPKM
LOC100506668 Expression level (FPKM) (KDM4A SCNT 8-cell embryos): 8.79 FPKM
LUC7L Expression level (FPKM) (KDM4A SCNT 8-cell embryos): 2.91 FPKM
M1 Expression level (FPKM) (KDM4A SCNT 8-cell embryos): 2.52 FPKM
MAGEA12 Expression level (FPKM) (KDM4A SCNT 8-cell embryos): 0.25 FPKM
MAGEB2 Expression level (FPKM) (KDM4A SCNT 8-cell embryos): 0.79 FPKM
MATR3 Expression level (FPKM) (KDM4A SCNT 8-cell embryos): 9.43 FPKM
MED31 Expression level (FPKM) (KDM4A SCNT 8-cell embryos): 27.22 FPKM
MFSD11 Expression level (FPKM) (KDM4A SCNT 8-cell embryos): 7.94 FPKM
MPV17L2 Expression level (FPKM) (KDM4A SCNT 8-cell embryos): 4.48 FPKM
MRPL28 Expression level (FPKM) (KDM4A SCNT 8-cell embryos): 1.56 FPKM
MTERF Expression level (FPKM) (KDM4A SCNT 8-cell embryos): 3.15 FPKM
NANOGNB Expression level (FPKM) (KDM4A SCNT 8-cell embryos): 30.92 FPKM
NDUFAF2 Expression level (FPKM) (KDM4A SCNT 8-cell embryos): 6.37 FPKM
NMNAT1 Expression level (FPKM) (KDM4A SCNT 8-cell embryos): 3.71 FPKM

Source: US20180298405A1, “METHODS AND COMPOSITIONS TO INCREASE HUMAN SOMATIC CELL NUCLEAR TRANSFER (SCNT) EFFICIENCY BY REMOVING HISTONE H3-LYSINE TRIMETHYLATION, AND DERIVATION OF HUMAN NT-ESC” (CHILDREN'S MEDICAL CENTER CORPORATION, priority 2015, published 2018)
